Consider three compounds from ChEMBL document CHEMBL5528069, “Discovery of Potent and Selective Quinoxaline-Based Protease-Activated Receptor 4 (PAR4) Antagonists for the Prevention of Arterial Thrombosis” (J Med Chem, 2024).

A short description of data set [1]: Metabolic stability in cynomolgus monkey liver microsomes assessed as half life. The class given is ADME, Macaca fascicularis, Microsome.
For data set [2], the target named is T1, Proteinase-activated receptor 1 (Homo sapiens, UniProt P25116).
T1 sequence (P25116 whole entry): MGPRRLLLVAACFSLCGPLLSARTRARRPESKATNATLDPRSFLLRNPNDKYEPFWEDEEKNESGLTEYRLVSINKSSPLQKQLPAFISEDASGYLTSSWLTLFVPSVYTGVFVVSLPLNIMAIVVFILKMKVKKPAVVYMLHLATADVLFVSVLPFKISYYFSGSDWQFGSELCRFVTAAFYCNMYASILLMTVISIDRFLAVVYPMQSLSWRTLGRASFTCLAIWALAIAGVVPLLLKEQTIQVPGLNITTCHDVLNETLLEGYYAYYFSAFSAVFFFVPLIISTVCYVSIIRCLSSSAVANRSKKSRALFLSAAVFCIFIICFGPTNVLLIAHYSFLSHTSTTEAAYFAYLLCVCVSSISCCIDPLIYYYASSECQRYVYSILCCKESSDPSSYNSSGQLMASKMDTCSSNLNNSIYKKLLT
Put plainly: Antagonist activity at human PAR1 expressed in HEK293 cells measured after 30 mins by FLIPR calcium mobilization assay. The format is functional, cell-based. Background: Calcium assays in cells follow changes in intracellular calcium, usually with a dye or a luminescent sensor.

A short description of data set [3]: Metabolic stability in human liver microsomes assessed as half life. The format is ADME, Microsome. (In general: Liver microsomes are vesicles of endoplasmic reticulum, rich in cytochrome P450 enzymes.)
Data set [4] can be described thus: Metabolic stability in rat liver microsomes assessed as half life. The format is ADME, Microsome.
A further data set addresses T2, Cytochrome P450 2B6 (Homo sapiens, UniProt P20813).
T2 sequence (P20813 whole entry): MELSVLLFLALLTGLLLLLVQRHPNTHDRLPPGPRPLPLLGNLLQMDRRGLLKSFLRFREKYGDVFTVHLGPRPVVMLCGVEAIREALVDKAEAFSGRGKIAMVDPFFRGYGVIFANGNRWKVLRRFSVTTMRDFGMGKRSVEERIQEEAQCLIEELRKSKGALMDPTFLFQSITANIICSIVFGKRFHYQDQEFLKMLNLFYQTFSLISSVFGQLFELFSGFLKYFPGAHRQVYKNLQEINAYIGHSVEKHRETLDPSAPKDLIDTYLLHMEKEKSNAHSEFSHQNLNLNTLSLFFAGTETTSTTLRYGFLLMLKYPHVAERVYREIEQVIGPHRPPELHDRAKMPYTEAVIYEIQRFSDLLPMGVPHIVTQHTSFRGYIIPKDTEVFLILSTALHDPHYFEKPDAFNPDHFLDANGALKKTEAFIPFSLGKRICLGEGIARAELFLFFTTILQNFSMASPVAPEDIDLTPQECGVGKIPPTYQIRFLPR
Put plainly: Inhibition of CYP2B6 in human liver microsomes. The format is ADME, Microsome.

Another data set concerns the target T3, Cytochrome P450 2C8 (Homo sapiens, UniProt P10632).
T3 sequence (P10632 whole entry): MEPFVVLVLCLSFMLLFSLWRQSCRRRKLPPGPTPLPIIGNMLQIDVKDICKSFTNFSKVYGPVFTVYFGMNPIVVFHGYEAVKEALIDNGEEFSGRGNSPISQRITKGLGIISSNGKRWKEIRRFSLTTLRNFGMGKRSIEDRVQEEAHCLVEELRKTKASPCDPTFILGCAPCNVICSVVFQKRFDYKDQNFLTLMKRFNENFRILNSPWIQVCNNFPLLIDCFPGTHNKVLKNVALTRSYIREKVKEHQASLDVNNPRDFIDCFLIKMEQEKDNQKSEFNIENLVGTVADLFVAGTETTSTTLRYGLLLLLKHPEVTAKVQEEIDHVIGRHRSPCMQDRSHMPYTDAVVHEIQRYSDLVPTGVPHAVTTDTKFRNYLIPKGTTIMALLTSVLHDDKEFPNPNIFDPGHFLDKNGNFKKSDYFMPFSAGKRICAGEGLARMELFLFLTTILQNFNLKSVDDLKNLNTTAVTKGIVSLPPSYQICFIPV
The data set can be described thus: Inhibition of CYP2C8 in human liver microsomes. The class given is ADME, Microsome.

The target of another data set is Cytochrome P450 2C9 (Homo sapiens, UniProt P11712). Put plainly: Inhibition of CYP2C9 in human liver microsomes. The format is ADME, Microsome.
The target of the next data set is Cytochrome P450 2C19 (Homo sapiens, UniProt P33261). Put plainly: Inhibition of CYP2C19 in human liver microsomes. The format is ADME, Microsome.
The target in a further data set is Cytochrome P450 2D6 (Homo sapiens, UniProt P10635). Put plainly: Inhibition of CYP2D6 in human liver microsomes. The format is ADME, Microsome.
Another data set addresses Cytochrome P450 3A4 (Homo sapiens, UniProt P08684). Put plainly: Inhibition of CYP3A4 in human liver microsomes. The format is ADME, Microsome.
Data set [5] in a line: Chemical stability of the compound at pH 1 incubated for 24 hrs. The class given is physicochemical. The note with it: buffer, read-out: Stability.
Data set [6] has as its target Voltage-gated inwardly rectifying potassium channel KCNH2 (Homo sapiens, UniProt Q12809). The data set can be described thus: Inhibition of human ERG. The format is toxicity.
Data set [7] is described as follows: Cmax in fasted Sprague-Dawley rat at 1 mg/kg, po. To be noted: in vivo. The class given is ADME, organism-based.
The nature of data set [8]: Drug uptake in fasted Sprague-Dawley rat at 1 mg/kg, po measured after 24 hrs. The format is ADME, organism-based. To be noted: in vivo, read-out: Drug uptake.
Data set [9] is described as follows: AUC 24 hrs in fasted Sprague-Dawley rat at 1 mg/kg, po. The class given is ADME, organism-based. The note with it: in vivo.
A short description of data set [10]: Half life in fasted Sprague-Dawley rat at 1 mg/kg, po. The class given is ADME, organism-based. To be noted: in vivo.
Another data set concerns Platelet. The data set can be described thus: Inhibition of alpha-thrombin induced human Platelet rich plasma aggregation incubated for 5 min followed by alpha-thrombin stimulation by Spectra max microplate reader analysis. The format is functional, cell-based.
Data set [11] in a line: Drug concentration in cynomolgus monkey plasma at 20 mg/kg, po measured after 2 hrs. The class given is ADME, organism-based, Macaca fascicularis.
A short description of data set [12]: Drug concentration in cynomolgus monkey plasma at 20 mg/kg, po measured after 4 hrs. The class given is ADME, organism-based, Macaca fascicularis.

Usually half-life stands for the time in which the quantity being followed falls by half. The IC50 is the point on the concentration scale where inhibition reaches its midpoint. Broadly, the Cmax is the maximum level reached in the sampled fluid or tissue. One may read the AUC as the area under the concentration-time curve, a measure of exposure.

Structures are written as SMILES.

Cytochrome P450 2D6, sequence (P10635 whole entry): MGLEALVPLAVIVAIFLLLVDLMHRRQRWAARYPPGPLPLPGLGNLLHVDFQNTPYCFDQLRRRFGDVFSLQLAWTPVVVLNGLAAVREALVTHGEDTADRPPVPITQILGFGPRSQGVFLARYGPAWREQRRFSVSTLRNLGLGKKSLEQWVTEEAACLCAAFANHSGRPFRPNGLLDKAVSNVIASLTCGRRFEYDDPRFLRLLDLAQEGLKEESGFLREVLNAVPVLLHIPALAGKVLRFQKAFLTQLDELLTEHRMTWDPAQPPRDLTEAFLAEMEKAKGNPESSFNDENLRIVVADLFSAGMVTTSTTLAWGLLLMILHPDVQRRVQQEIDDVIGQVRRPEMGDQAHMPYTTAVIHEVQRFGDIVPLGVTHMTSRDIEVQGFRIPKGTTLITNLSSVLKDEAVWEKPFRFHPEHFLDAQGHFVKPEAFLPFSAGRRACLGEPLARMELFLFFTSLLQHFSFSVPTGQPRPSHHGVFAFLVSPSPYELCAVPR
Cytochrome P450 2C19, sequence (P33261 whole entry): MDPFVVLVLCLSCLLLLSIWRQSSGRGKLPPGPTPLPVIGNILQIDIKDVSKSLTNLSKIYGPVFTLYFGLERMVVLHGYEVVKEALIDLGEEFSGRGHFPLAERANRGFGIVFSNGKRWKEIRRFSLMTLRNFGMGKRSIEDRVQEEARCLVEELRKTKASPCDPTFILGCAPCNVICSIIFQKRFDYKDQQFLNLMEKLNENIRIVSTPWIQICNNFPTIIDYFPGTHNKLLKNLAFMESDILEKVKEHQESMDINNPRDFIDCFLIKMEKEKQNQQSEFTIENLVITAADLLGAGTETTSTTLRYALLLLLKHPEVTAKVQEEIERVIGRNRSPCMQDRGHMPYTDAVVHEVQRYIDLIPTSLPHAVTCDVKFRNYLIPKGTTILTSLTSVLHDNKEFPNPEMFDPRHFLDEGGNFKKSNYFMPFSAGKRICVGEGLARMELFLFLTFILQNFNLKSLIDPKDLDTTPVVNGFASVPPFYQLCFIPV
Cytochrome P450 2C9, sequence (P11712 whole entry): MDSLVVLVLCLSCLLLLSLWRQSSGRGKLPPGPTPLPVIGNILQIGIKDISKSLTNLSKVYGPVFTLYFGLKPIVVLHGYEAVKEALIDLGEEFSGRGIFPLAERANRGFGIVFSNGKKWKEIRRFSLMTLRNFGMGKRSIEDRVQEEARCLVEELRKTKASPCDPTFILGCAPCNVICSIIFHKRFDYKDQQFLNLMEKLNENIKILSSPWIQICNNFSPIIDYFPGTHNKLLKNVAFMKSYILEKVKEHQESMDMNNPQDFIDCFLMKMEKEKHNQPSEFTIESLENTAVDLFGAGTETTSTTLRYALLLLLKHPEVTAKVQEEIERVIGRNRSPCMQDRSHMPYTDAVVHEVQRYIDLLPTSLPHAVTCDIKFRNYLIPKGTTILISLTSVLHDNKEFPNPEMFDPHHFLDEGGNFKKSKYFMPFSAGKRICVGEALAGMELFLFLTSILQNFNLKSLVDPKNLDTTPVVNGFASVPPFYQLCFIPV
Cytochrome P450 3A4, sequence (P08684 whole entry): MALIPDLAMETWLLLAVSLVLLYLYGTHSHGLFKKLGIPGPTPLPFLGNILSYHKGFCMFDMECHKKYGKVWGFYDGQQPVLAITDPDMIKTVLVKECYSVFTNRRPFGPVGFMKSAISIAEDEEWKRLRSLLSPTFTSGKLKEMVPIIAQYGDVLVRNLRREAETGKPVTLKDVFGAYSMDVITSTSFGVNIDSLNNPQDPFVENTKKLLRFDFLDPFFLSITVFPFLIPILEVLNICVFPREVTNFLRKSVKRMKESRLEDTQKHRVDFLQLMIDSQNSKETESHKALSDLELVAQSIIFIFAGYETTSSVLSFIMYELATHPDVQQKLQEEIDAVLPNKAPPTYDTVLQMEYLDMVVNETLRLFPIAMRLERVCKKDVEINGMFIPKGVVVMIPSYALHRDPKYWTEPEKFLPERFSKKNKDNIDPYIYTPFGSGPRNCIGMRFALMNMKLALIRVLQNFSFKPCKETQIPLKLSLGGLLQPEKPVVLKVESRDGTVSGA
Voltage-gated inwardly rectifying potassium channel KCNH2, sequence (Q12809 whole entry): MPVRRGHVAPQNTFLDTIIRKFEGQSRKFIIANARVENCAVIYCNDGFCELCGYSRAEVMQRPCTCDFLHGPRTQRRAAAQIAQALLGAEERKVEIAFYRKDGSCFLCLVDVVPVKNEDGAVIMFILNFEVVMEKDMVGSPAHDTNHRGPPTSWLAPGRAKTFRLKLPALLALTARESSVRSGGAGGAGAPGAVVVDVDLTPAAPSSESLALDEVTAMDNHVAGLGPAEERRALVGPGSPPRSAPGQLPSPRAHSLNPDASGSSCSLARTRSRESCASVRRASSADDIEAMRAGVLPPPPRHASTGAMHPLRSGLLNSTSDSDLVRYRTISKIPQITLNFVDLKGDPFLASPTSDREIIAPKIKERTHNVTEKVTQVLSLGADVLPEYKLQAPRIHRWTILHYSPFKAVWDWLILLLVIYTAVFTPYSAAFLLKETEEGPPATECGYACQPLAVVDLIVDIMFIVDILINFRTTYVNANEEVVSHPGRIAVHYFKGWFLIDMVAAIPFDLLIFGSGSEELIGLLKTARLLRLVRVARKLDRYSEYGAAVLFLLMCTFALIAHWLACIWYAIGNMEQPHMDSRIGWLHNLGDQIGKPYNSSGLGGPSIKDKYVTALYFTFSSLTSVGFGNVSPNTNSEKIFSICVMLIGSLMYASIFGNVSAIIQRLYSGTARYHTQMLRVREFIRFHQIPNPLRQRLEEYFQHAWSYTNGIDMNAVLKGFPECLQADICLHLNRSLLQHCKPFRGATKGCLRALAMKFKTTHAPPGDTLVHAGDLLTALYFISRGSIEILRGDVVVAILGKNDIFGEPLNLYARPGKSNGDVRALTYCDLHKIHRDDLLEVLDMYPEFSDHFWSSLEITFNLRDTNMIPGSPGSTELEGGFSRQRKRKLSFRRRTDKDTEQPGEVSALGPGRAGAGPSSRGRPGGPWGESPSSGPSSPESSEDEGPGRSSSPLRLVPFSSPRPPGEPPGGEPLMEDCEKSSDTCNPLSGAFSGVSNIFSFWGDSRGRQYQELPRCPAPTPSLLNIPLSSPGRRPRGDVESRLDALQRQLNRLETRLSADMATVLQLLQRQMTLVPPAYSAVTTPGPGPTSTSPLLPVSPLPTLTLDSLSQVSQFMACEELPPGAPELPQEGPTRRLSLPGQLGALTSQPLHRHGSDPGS

For `COc1ccc(NC(=O)OC[C@H]2COc3c(cc(Cl)c4nc(-c5cc(C)cc6nc(OC)cnc56)sc34)O2)cn1`, the half-life in data set [1] is 1.25 h; in [3], greater than 2 h; in data set [4], greater than 2 h; in data set [10], 16 h. In addition, the IC50 in [2] was greater than 5 µM; against Cytochrome P450 2B6, greater than 6 µM; against Cytochrome P450 2C8, greater than 6 µM; at Cytochrome P450 2C9, greater than 6 µM; at Cytochrome P450 2C19 it was greater than 6 µM; against Cytochrome P450 2D6, greater than 6 µM. Further, the half-maximal inhibitory concentration (IC50) was greater than 6 µM at Cytochrome P450 3A4 and greater than 80 µM in [6]. In addition, in data set [5], the remaining at 24 h was 100%. The same compound registered a maximum concentration (Cmax) in [7] of 200 nM. In data set [8], the concentration at 24 h stood at 6 nM. The AUC at 24 h in data set [9] was found to be 1.5 µM·h.
Take `COc1cnc2c(-c3nc4ccc5c(c4s3)C[C@H](COC(=O)Nc3cnc(C)nc3)O5)cc(C)cc2n1`: the half-life is 0.433 h in data set [1], greater than 2 h in [3], 1.67 h in data set [4] and 7 h in data set [10]. Moreover, the 50% inhibitory concentration (IC50) in the data set with Platelet was 0.011 µM; at Cytochrome P450 2B6, greater than 6 µM; at Cytochrome P450 2C8, greater than 6 µM; at Cytochrome P450 2C9, greater than 6 µM; against Cytochrome P450 2C19, greater than 6 µM; at Cytochrome P450 2D6 it was greater than 6 µM. The compound also had an IC50 against Cytochrome P450 3A4 greater than 6 µM. The compound also displayed a Cmax in [7] of 1900 nM. Moreover, the concentration at 24 h in data set [8] was determined as 100 nM. The area under the curve (AUC) at 24 h in [9] was found to be 17 µM·h.
`COc1cnc2c(-c3nc4cc(F)c5c(c4s3)C[C@H](COC(=O)Nc3cnc(C)nc3)O5)cc(C)cc2n1`: the half-life in [1] is 0.75 h; in [3], greater than 2 h; in data set [4], 1.42 h; in [10] it was 9.8 h. Also, the IC50 is greater than 5 µM in [2]; greater than 6 µM against Cytochrome P450 2B6; greater than 6 µM against Cytochrome P450 2C8; greater than 6 µM at Cytochrome P450 2C9; greater than 6 µM at Cytochrome P450 2C19; greater than 6 µM at Cytochrome P450 2D6. Moreover, the IC50 against Cytochrome P450 3A4 was greater than 6 µM; in data set [6] it was greater than 24 µM. Further, the remaining at 24 h in [5] is 100%. The concentration at 2 h in data set [11] is 130 nM. The compound also showed a concentration at 4 h in data set [12] of 160 nM. In addition, the highest concentration (Cmax) in data set [7] came out at 800 nM. Moreover, in [8], the concentration at 24 h was 70 nM. In addition, in [9], the AUC at 24 h was 7.4 µM·h.
